Experimental data from ChEMBL document CHEMBL5321250, “Polyketide- and Terpenoid-Derived Metabolites Produced by a Marine-Derived Fungus, Peroneutypa sp” (J Nat Prod, 2023).

Legend:
Plasmodium falciparum [1] = experiment: Antimalarial activity against MMV848 resistant Plasmodium falciparum 3D7r_MMV848 assessed as reduction in parasitemia measured after 72 hrs by SYBR Green I dye based fluorescence assay; format: functional, organism-based; settings: 3D7r_MMV848, 72 h
[2] = Resistance index, ratio of IC50 for antimalarial activity against CQ/PYR/ATO resistant Plasmodium falciparum TM90C6B to IC50 for antimalarial activity against Plasmodium falciparum 3D7; format: functional
[3] = Resistance index, ratio of IC50 for antimalarial activity against CQ/SDX/PYR/MQ/CYC resistant Plasmodium falciparum Dd2 to IC50 for antimalarial activity against Plasmodium falciparum 3D7; format: functional
[4] = Resistance index, ratio of IC50 for antimalarial activity against MMV848 resistant Plasmodium falciparum 3D7r_MMV848 to IC50 for antimalarial activity against Plasmodium falciparum 3D7; format: functional
Plasmodium falciparum [5] = experiment: Antimalarial activity against Plasmodium falciparum 3D7 assessed as reduction in parasitemia measured after 72 hrs by SYBR Green I dye based fluorescence assay; format: functional, organism-based; settings: 3D7, 72 h
Plasmodium falciparum [6] = experiment: Antimalarial activity against CQ/SDX/PYR/MQ/CYC resistant Plasmodium falciparum Dd2 assessed as reduction in parasitemia measured after 72 hrs by SYBR Green I dye based fluorescence assay; format: functional, organism-based; settings: Dd2, 72 h
Plasmodium falciparum [7] = experiment: Antimalarial activity against CQ/PYR/ATO resistant Plasmodium falciparum TM90C6B assessed as reduction in parasitemia measured after 72 hrs by SYBR Green I dye based fluorescence assay; format: functional, organism-based
[8] = Cytotoxicity against human HepG2 cells assessed as inhibition of cell growth incubated for 72 hrs by MTT assay; format: toxicity, cell-based

## C[C@@H]1CC[C@H]2[C@@H](C)C(=O)O[C@@H]3O[C@@]4(C)CC[C@@H]1[C@]32OO4 [ARTEMISININ]
Plasmodium falciparum [1]
  IC50: 0.013 µM
[2]
  Ratio IC50: 1
[3]
  Ratio IC50: 2
[4]
  Ratio IC50: 2
Plasmodium falciparum [5]
  IC50: 0.006 µM
Plasmodium falciparum [6]
  IC50: 0.011 µM

## CCc1nc(N)nc(N)c1-c1ccc(Cl)cc1 [PYRIMETHAMINE]
[3]
  Ratio IC50: > 166
Plasmodium falciparum [5]
  IC50: 0.06 µM
Plasmodium falciparum [6]
  IC50: > 10 µM

## CC(C)c1c(C(=O)Nc2ccccc2)c(-c2ccccc2)c(-c2ccc(F)cc2)n1CC[C@@H](O)C[C@@H](O)CC(=O)O [ATORVASTATIN]
[2]
  Ratio IC50: > 1430
Plasmodium falciparum [7]
  IC50: > 1 µM

## O=c1occ(-c2ccc(O)cc2)c2cc(O)ccc12
Plasmodium falciparum [1]
  IC50: 23 µM
[2]
  Ratio IC50: 1
Plasmodium falciparum [7]
  IC50: 19 µM
[3]
  Ratio IC50: 1.9
[4]
  Ratio IC50: 1.2
Plasmodium falciparum [5]
  IC50: 19 µM
[8]
  IC50 at 72 h: > 100 µM
Plasmodium falciparum [6]
  IC50: 37 µM
